{"source": "patent US5439687A", "about": "“Dosage forms having zero-order dihydropyridine calcium antagonist release” (priority 1992, dated 1995)", "origin": "cited, not measured here", "conditions": "rapid influx rate with high plasma level peaks"}
{"smiles": "COC(=O)C1=C(C)NC(C)=C(C(=O)OC)C1c1ccccc1[N+](=O)[O-]", "note": "[nifedipine]", "values": [{"measurement": "Side-effect rate and blood pressure lowering effectiveness", "value": "associated with an increased side-effect rate (tachycardia) and reduced effectiveness in lowering blood pressure"}]}
